Experiment [1] concerns Clonic Seizures Caused by Pentylenetetrazole in Rats. Kind of experiment: Protection against clonic seizures caused by pentylenetetrazole in rats. It is filed as in vivo. The conditions noted are these: Rattus norvegicus, oral or i.p., read-out: % of Rats Protected; for responders at 25 mg/kg: pentylenetetrazole 23 mg/kg i.v. at 30 or 60 min. How it is done:
The anti-anxiety and anticonvulsant properties of the novel compounds of the present invention have been established in a test which indicates anxiolytic and antiepileptic activity by the measure of protection from convulsions resulting from the administration of pentylenetetrazole. Single or graded dose levels of the test compounds were administered orally or intraperitoneally in a 2% starch vehicle, containing 0.5% v/v polyethylene glycol and one drop of Polysorbate 80 to groups of at least 4 rats. At 30 or 60 minutes, the rats were treated intravenously with pentylenetetrazole at a dose of 23 mg/kg of body weight. This dose is estimated to cause clonic seizures in 99% of unprotected rats. It has been reported [R. T. Hill and D. H. Tedeschi, "Animal Testing and Screening Procedures in Evaluating Psychotropic Drugs" in "An Introduction to Psychopharmacology", Eds. R. R. Rech and K. E. Moore, Raven Press, New York, pp 237-288 (1971)] that there is a high degree of correlation between antagonism of pentylenetetrazole seizures in rats and anti-anxietyor anticonvulsant effects in higher warm-blooded animals.

Experiment [2] relates to Nonconditioned Passive Avoidance in Rats. Description: Nonconditioned passive avoidance (conflict) test in rats. It is filed as in vivo, rat (Wistar). More on the design: key: Active: considered active if the number of shocks received by the test group is significantly higher than the control group by the Mann-Witney U test. The note with it: oral or i.p. On the procedure: Another test which has been used to assess anti-anxiety effects is a nonconditioned passive avoidance procedure described by [J. R. Vogel, B. Beer and D. E. Clody, "A Simple and Reliable Conflict Procedure for Testing Anti-Anxiety Agents", Psychopharmacologia, 21, 1-7 (1971)]. A conflict situation is induced in rats by a modification of this method.
Groups of 6 naive, Wistar strain rats, weighing 200-240 g each were deprived of water for 48 hours and food for 24 hours. The test compounds were administered in single or graded, oral or intraperitoneal doses, suspended in a 2% starch vehicle containing 0.5% v/v polyethylene glycol and one drop of polysorbate 80. Control animals received the vehicle alone. At 30 to 60 minutes each rat was placed in an individual plexiglass chamber. Water was available ad libitum from a tap located in the rear of the chamber. A 0.7 milliampere DC shocking current was established between the stainless steel grid floor and the tap. After 20 licks of non-shocked drinking, a shock was delivered for 2 seconds and then further shocks were delivered on a ratio of one shock for 2 seconds for every 20 licks. This was continued for a total of 3 minutes. The number of shocks taken by each rat during the 3 minute interval was recorded and compared to a control group. […]

Experiment [3] relates to Brain-Specific Receptors of Rats. Kind of experiment: Inhibition of the binding of 3H-benzodiazepine to brain-specific receptors of rats. More on the design: species or system rat (Wistar). The conditions noted are these: 3H-diazepam 1.5 nM or 3H-flunitrazepam 1.0 nM; rat cortex P2 fraction; test concentration not given.
The mark [4] stands for this setting: pentylenetetrazole 23 mg/kg i.v.

For the compound `CCNc1cccc(-c2ccnc3c(C(=O)c4ccco4)cnn23)c1` [[7-[3-(Ethylamino)phenyl]pyrazolo[1,5-a]pyrimidin-3-yl]-2-furanylmethanone], the responders at 25 mg/kg in experiment [1] was 100%. Further, the “Result (nonconditioned passive avoidance)” value (“Result” for short) in experiment [2] (dose 25.0 mg/kg) is “Active”.
For `O=C(c1ccccc1F)c1cnn2c(-c3cccc(C(F)(F)F)c3)ccnc12` [(2-fluorophenyl)[7-[3-(trifluoromethyl)phenyl]pyrazolo[1,5-a]pyrimidin-3-yl]methanone], the responders at 25 mg/kg in experiment [1] worked out at 50%. Also, the “Result” value in experiment [2] (dose 25.0 mg/kg) is recorded as “Active”.
On the same counts, the results for `O=C(c1ccc2c(c1)OCO2)c1cnn2c(-c3cccnc3)ccnc12` [1,3-benzodioxol-5-yl[7-(3-pyridinyl)pyrazolo[1,5-a]pyrimidin-3-yl]methanone] are 50% and “Active”.
A word on the % Inhibition: it is how much of the control response was suppressed. As to `Cc1cc(-c2ccc(Cl)c(Cl)c2)n2ncc(C(=O)c3ccccc3)c2n1` [[7-(3,4-dichlorophenyl)-5-methylpyrazolo[1,5-a]pyrimidin-3-yl]phenyl-methanone], the responders at 25 mg/kg in experiment [1] amounted to 25%. Also, the “% Inhibition” value in experiment [3] is recorded as 97%.
For the compound `CCN(C(C)=O)c1cccc(-c2ccnc3c(C(=O)c4ccco4)cnn23)c1` [N--ethyl-N--[3-[3-(2-furanylcarbonyl)pyrazolo[1,5-a]pyrimidin-7-yl]phenyl]acetamide], the responders at 12.5 mg/kg in experiment [1] (setting [4]) was determined as 100%. In experiment [2] (dose 12.5 mg/kg), the “Result” value is “Active”.
`CCC(=O)N(CC)c1cccc(-c2ccnc3c(C(=O)c4ccccc4)cnn23)c1` [N-[3-(3-Benzoylpyrazolo[1,5-a]pyrimidin-7-yl)phenyl]N-ethylpropanamide]: the responders at 12.5 mg/kg in experiment [1] (setting [4]) was found to be 100%. Besides, the “Result” value in experiment [2] (dose 12.5 mg/kg) is “Active”.
Consider `COc1ccc(-c2cc(C)nc3c(C(=O)c4ccc(F)cc4)cnn23)cc1OC` [[7-(3,4-dimethoxyphenyl)-5-methylpyrazolo[1,5-a]pyrimidin-3-yl](4-fluorophenyl)methanone], for which the responders at 25 mg/kg in experiment [1] came out at 25%. Also, in experiment [3], the “% Inhibition” value is given as 48%.
On to `Cc1ccc(C(=O)c2cnn3c(-c4cccc(C(F)(F)F)c4)ccnc23)cc1` [(4-methylphenyl)[7-[3-(trifluoromethyl)phenyl]pyrazolo[1,5-a]pyrimidin-3-yl]methanone], for which the responders at 25 mg/kg in experiment [1] is 50%. For the same compound, the “Result” value in experiment [2] (dose 12.5 mg/kg) is given as “Active”.
Take `CCC(=O)N(CC)c1cccc(-c2ccnc3c(C(=O)c4ccco4)cnn23)c1` [N-Ethyl-N-[3-[3-(2-furanylcarbonyl)pyrazolo[1,5-a]pyrimidin-7-yl]phenyl]propanamide]: the “Result” value in experiment [2] (dose 12.5 mg/kg) is given as “Active”.
With `Cc1cc(-c2cc[n+]([O-])cc2)n2ncc(C(=O)c3ccccc3)c2n1` [[5-Methyl-7-(4-pyridinyl)pyrazolo[1,5-a]pyrimidin-3-yl]phenyl-methanone, pyridine-1-oxide], in experiment [1], the responders at 25 mg/kg amounted to 25%. Also, the “% Inhibition” value in experiment [3] was determined as 52%.
Consider `CC(=O)N(C)c1cccc(-c2ccnc3c(C(=O)c4ccccc4)cnn23)c1` [N-[3-(3-Benzoylpyrazolo[1,5-a]pyrimidin-7-yl)phenyl]-N-methylacetamide], for which the responders at 0.8 mg/kg in experiment [1] (setting [4]) stood at 75%. Besides, the “Result” value in experiment [2] (dose 3.1 mg/kg) is reported as “Active”.
In the case of `CC(=O)N(C)c1ccc(-c2ccnc3c(C(=O)c4ccccc4)cnn23)cc1` [N--[4-(3-benzoylpyrazolo[1,5-a]pyrimidin-7-yl)phenyl]-N--methylacetamide], the “Result” value in experiment [2] (dose 25.0 mg/kg) is “Active”.
For `CCC(=O)N(C)c1cccc(-c2ccnc3c(C(=O)c4ccco4)cnn23)c1` [N-[3-[3-(2-Furanylcarbonyl)pyrazolo[1,5-a]pyrimidin-7-yl]phenyl]-N-methylpropanamide], the responders at 6 mg/kg in experiment [1] (dose 6.0 mg/kg, pentylenetetrazole 23 mg/kg i.v.) turned out to be 100%. In addition, the “Result” value in experiment [2] (dose 25.0 mg/kg) is “Active”.
As for `CCC(=O)N(C)c1cccc(-c2ccnc3c(C(=O)c4ccccc4)cnn23)c1` [N-[3-(3-Benzoylpyrazolo[1,5-a]pyrimidin-7-yl)phenyl]-N-methylpropanamide], the responders at 0.8 mg/kg in experiment [1] (setting [4]) came out at 100%. The “Result” value in experiment [2] (dose 1.5 mg/kg) is “Active”.
Take `O=C(c1ccc(F)cc1)c1cnn2c(-c3ccccn3)ccnc12` [(4-fluorophenyl)[7-(2-pyridinyl)pyrazolo[1,5-a]pyrimidin-3-yl]methanone]: in experiment [1], the responders at 25 mg/kg came out at 50%. Besides, the “% Inhibition” value in experiment [3] was determined as 17%.
On the same counts, the results for `O=C(c1ccc(F)cc1)c1cnn2c(-c3ccccc3F)ccnc12` [(4-fluorophenyl)[7-(2-fluorophenyl)pyrazolo[1,5-a]pyrimidin-3-yl]methanone] are 50% and 22%.
The matching figures for `Cc1cccc(C(=O)c2cnn3c(-c4cccc(C(F)(F)F)c4)ccnc23)c1` [(3-methylphenyl)[7-[3-(trifluoromethyl)phenyl]pyrazolo[1,5-a]pyrimidin-3-yl]methanone]: 25% and 67%.
As for `O=C(c1ccc(F)cc1)c1cnn2c(-c3cccnc3)ccnc12` [(4-fluorophenyl)[7-(3-pyridinyl)pyrazolo[1,5-a]pyrimidin-3-yl]methanone], the responders at 25 mg/kg in experiment [1] came to 63%. In experiment [2] (dose 25.0 mg/kg), the “Result” value is reported as “Active”.
For the compound `O=C(c1ccccc1F)c1cnn2c(-c3cccnc3)ccnc12` [(2-fluorophenyl)[7-(3-pyridinyl)pyrazolo[1,5-a]pyrimidin-3-yl]methanone], in experiment [1], the responders at 25 mg/kg amounted to 100%. In experiment [2] (dose 25.0 mg/kg), the “Result” value is “Active”.
On to `CN(C)c1ccc(C(=O)c2cnn3c(-c4cccnc4)ccnc23)cc1` [[4-(dimethylamino)phenyl][7-(3-pyridinyl)pyrazolo[1,5-a]pyrimidin-3-yl]methanone], for which the responders at 25 mg/kg in experiment [1] came to 100%. Further, the “Result” value in experiment [2] (dose 25.0 mg/kg) is listed as “Active”.
The matching figures for `CC(=O)N(C)c1cccc(-c2ccnc3c(C(=O)c4ccco4)cnn23)c1` [N-[3-[3-(2-Furancarbonyl)pyrazolo[1,5-a]pyrimidin-7-yl]phenyl]-N-methylacetamide]: 100% and “Active”.
The matching figures for `O=C(c1ccsc1)c1cnn2c(-c3cccnc3)ccnc12` [[7-(3-pyridinyl)pyrazolo[1,5-a]pyrimidin-3-yl]-3-thienylmethanone]: 50% and “Active”.
Consider `O=C(c1ccncc1)c1cnn2c(-c3cccc(C(F)(F)F)c3)ccnc12` [4-pyridinyl[7-[3-(trifluoromethyl)phenyl]pyrazolo[1,5-a]pyrimidin-3-yl]methanone], for which the responders at 25 mg/kg in experiment [1] worked out at 100%. In addition, the “Result” value in experiment [2] (dose 25.0 mg/kg) is listed as “Active”.
On to `COc1ccc(C(=O)c2cnn3c(-c4cccc(C(F)(F)F)c4)ccnc23)cc1OC` [(3,4-dimethoxyphenyl)[7-[3-(trifluoromethyl)phenyl]pyrazolo[1,5-a]pyrimidin-3-yl]methanone], for which, in experiment [1], the responders at 25 mg/kg turned out to be 50%. The “% Inhibition” value in experiment [3] is 94%.
Consider `Cc1nn2c(-c3cccnc3)ccnc2c1C(=O)c1ccccc1` [[2-methyl-7-(3-pyridinyl)pyrazolo[1,5-a]pyrimidin-3-yl]phenyl-methanone], for which the responders at 25 mg/kg in experiment [1] stood at 50%. Also, the “% Inhibition” value in experiment [3] was 52%.
For `O=C(c1ccccc1)c1cnn2c(-c3cc(Cl)cc(Cl)c3)ccnc12` [[7-(3,5-dichlorophenyl)pyrazolo[1,5-a]pyrimidin-3-yl]phenyl-methanone], in experiment [1], the responders at 25 mg/kg came to 25%. For the same compound, the “% Inhibition” value in experiment [3] turned out to be 20%.
On the same counts, the results for `O=C(c1cccs1)c1cnn2c(-c3cccnc3)ccnc12` [[7-(3-pyridinyl)pyrazolo[1,5-a]pyrimidin-3-yl]-2-thienyl-methanone] are 75% and 82%.

(Values after patent publication US4521422A, “Aryl and heteroaryl[7-(aryl and heteroaryl)pyrazolo[1,5-a]pyrimidin-3-yl]methanones” (American Cyanamid Company, priority 1984, dated 1985).)
